{"source": "patent US11083723B2", "about": "“Use of roluperidone to treat negative symptoms and disorders, increase neuroplasticity, and promote neuroprotection” (Minerva Neurosciences, Inc., priority 2018, dated 2021)", "key": {"[1]": {"tested_on": "BDNF expression by astrocytes", "test": "BDNF expression by astrocytes, qPCR", "type": "cell-based, rat", "conditions": "for BDNF expression astrocytes, % increase of control conditions: 5 days incubation; for BDNF expression by astrocytes, fold change (Fc) compared to control condition: 5 days", "protocol": "For analysis of BDNF expression by real-time quantitative polymerase chain reaction (qPCR), astrocytes were seeded in 24 well-plates pre-coated with poly-D-lysine. After 1 day of culture, fresh serum free medium containing compounds was added during 5 days at 37° C. At the end of the incubation time total RNA content were extracted and reverse transcription was performed. Expression levels were calculated using the ΔCt method where the expression level of the mRNA of interest is given by 2-ΔCT with ΔCT=CT target mRNA−CT reference mRNA (Gapdh), in the same sample.\nRat Primary Culture of Astrocytes—rat mixed glial cells were cultured as described by McCarthy et al., 1980. Primary rat glial cells were prepared from the cortical of newborn Wistar rats (1 day). Briefly, meninges and blood vessels of the mice cortex were removed and placed in ice-cold medium of Leibovitz (L15; PanBiotech, ref P04-27055, batch 4511117) containing 2% of Penicillin-Streptomycin (PS; PanBiotech, ref P06-07100, batch 2110917) and 1% of bovine serum albumin (BSA; PanBiotech, ref P06-1391100, batch H171006). Tissues were dissociated with 0.25% trypsin-EDTA (PanBiotech, ref P10-023100, batch 8970318) at 37° C. for 10 min. Cells were then submitted to a supplementary incubation of 15 min at 37° C. in presence of deoxyribonuclease I (0.1 mg/ml Panbiotech, ref: P60-37780100, batch: H170706). Cells were then pelleted (5 min at 1200 rpm) and trypsinization was stopped by adding DMEM (Panbiotech, Ref P04-03600, Batch 5181217) supplemented with 10% FCS (Fischer, Ref 10270106, batch 42G2068K), 1 mM of Na/pyruvate (PanBiotech, ref: P04-43100, batch: 3470914) and 2% PS. Cells suspension was mechanically dissociated and filtered through 40 μm diameter nylon meshes (BD Falcon, Ref: 352340). The cells were collected by centrifugation at 1200 rpm/min for 10 min, re-suspended in culture medium and then plated in culture flasks (Dutscher, ref: 690175). Cells were seeded at a density of 1.25×10^5 cells/cm^2 and cultured in 5% CO2 at 37° C. Medium was changed three times per week.\nAnalysis of BDNF expression by real-time quantitative polymerase chain reaction (PCR): astrocytes were seeded in 24 well-plates pre-coated with poly-D-lysine (Sigma, ref P7886, batch: SLBQ9797V). After 1 day of culture, fresh serum free medium containing compounds was added during 5 days at 37° C. At the end of the incubation time, medium was removed and total RNA content were extracted using kit nucleo spin RNS XS (Macherey Nagel; 20 μL/well). 6 wells/condition were done. RNA concentration was determined using a Nanodrop 2000 spectrophotometer (Life Technologies ThermoFisher Scientific, Villebon sur Yvette, France).\nReverse transcription was performed on 500 ng of RNA using the high capacity RNA-to-cDNA mix (Applied Biotechnologies). qPCR was performed on 12.5 ng of cDNA using the following primers, purchased from Applied Biotechnology.\nFor qPCR reactions, the kit TaqMan™ Fast Universal PCR Master Mix (2×) was used. The following volumes were used: mix: 10 uL, enzyme: 4 uL, oligo: 1 uL each, cDNA: 5 uL (12,5 ng). For the comparisons between various compounds and concentrations, expression levels were calculated using the ΔCt method where the expression level of the mRNA of interest is given by 2-ΔCT with ΔCT=CT target mRNA−CT reference mRNA (Gapdh), in the same sample. For the cultures treated with GA or the unknown compound, relative expression levels were determined according to the ΔΔCt method where the expression level of the mRNA of interest is given by 2-ΔΔCT where ΔΔCT=ΔCt for treated cultures−ΔCt for untreated cultures."}, "muscarinic receptors": {"tested_on": "muscarinic receptors", "test": "Receptor affinity, muscarinic", "type": "binding"}, "histaminergic receptors": {"tested_on": "histaminergic receptors", "test": "Receptor affinity, histaminergic", "type": "binding"}, "[2]": {"tested_on": "negative symptoms in schizophrenia", "test": "Phase 2b clinical study, negative symptoms in schizophrenia", "type": "in vivo, human", "conditions": "both tested doses (32 mg and 64 mg)"}, "QT prolongation": {"tested_on": "QT prolongation", "conditions": "patients treated with Compound (I); related to plasma levels of Compound (I) and metabolite BFB-520; cited from earlier work"}}, "note": "Structures can show the parent of a compound that is named as a salt."}
{"smiles": "O=C(CN1CCC(CN2Cc3ccccc3C2=O)CC1)c1ccc(F)cc1", "note": "[Compound (I), 1H-Isoindol-1-one, 2-[[1-[2-(4-Fluorophenyl)-2-oxoethyl]-4-piperidinyl]methyl]-2,3-dihydro-, hydrochloride, hydrate (1:1:2)]", "values": [{"measurement": "BDNF expression astrocytes, % increase of control conditions", "setting": "[1]; 0.3 nM", "result": 26, "unit": "%"}, {"measurement": "BDNF expression astrocytes, % increase of control conditions", "setting": "[1]; 1 nM", "result": 55, "unit": "%"}, {"measurement": "BDNF expression by astrocytes, fold change (Fc) compared to control condition", "setting": "[1]; 1 nM, p<0.05", "result": 1.55}, {"measurement": "BDNF expression astrocytes, % increase of control conditions", "setting": "[1]; 3 nM", "result": 81, "unit": "%"}, {"measurement": "BDNF expression by astrocytes, fold change (Fc) compared to control condition", "setting": "[1]; 3 nM, p<0.001", "result": 1.81}, {"measurement": "BDNF expression astrocytes, % increase of control conditions", "setting": "[1]; 10 nM", "result": 71, "unit": "%"}, {"measurement": "BDNF expression by astrocytes, fold change (Fc) compared to control condition", "setting": "[1]; 10 nM, p<0.01", "result": 1.71}, {"measurement": "BDNF expression astrocytes, % increase of control conditions", "setting": "[1]; 30 nM", "result": 31, "unit": "%"}, {"measurement": "BDNF expression astrocytes, % increase of control conditions", "setting": "[1]; 100 nM", "result": 5, "unit": "%"}, {"measurement": "affinity for muscarinic receptors", "setting": "muscarinic receptors", "result": "no affinity"}, {"measurement": "affinity for histaminergic receptors", "setting": "histaminergic receptors", "result": "no affinity"}, {"measurement": "benefit over placebo in improving negative symptoms in schizophrenia", "setting": "[2]", "result": "statistically significant benefit"}, {"measurement": "QT prolongation in patients", "setting": "QT prolongation", "result": "QT prolongation in patients treated with Compound (I) has been observed"}]}
